Experimental data from patent US20180042941A1, “CABAZITAXEL AND ITS USE FOR TREATING METASTATIC PROSTATE CANCERS” (AVENTIS PHARMA S.A., priority 2013, published 2018).

Tests used:
[1] = system: tumor models poorly or not sensitive to chemotherapy, including taxanes; details: cited from earlier work
[2] = system: patients treated with cabazitaxel; details: cited from earlier work
[3] = system: patient with metastatic prostate cancer; assay: case reports of patients treated with cabazitaxel in combination with prednisone or prednisolone (adverse events); details: for WBC level: units not provided
Procedure: This example relates to the treatment of a patient with metastatic prostate cancer, according the following dosage: cabazitaxel (25 mg/m^2)+prednisone 10 mg daily+budesonide (9 mg daily).
This example relates to a patient (with prostate carcinoma) who initiated treatment with study drug cabazitaxel (20 mg/m^2) and prednisone (10 mg) (cycle 1).
This example relates to the treatment of a patient with a metastatic carcinoma of the prostate, according the following dosage: cabazitaxel 20 mg/m^2 intravenously (day 1) every 3 weeks and prednisone 10 mg PO daily, from day 1 continuously.
The treatment was as follows: cabazitaxel 20 mg/m^2 on day 1 every 3 weeks in combination with prednisone/prednisolone.
The following treatment was followed: cabazitaxel 25 mg/m^2 on day 1 every 3 weeks in combination with prednisone/prednisolone.
The dosage regimen was as follows: cabazitaxel 25 mg/m^2 intravenous infusion over 1 hour on day 1 of each 3 week cycle as well as oral prednisone/prednisolone 10 mg daily.
The following treatment was applied: cabazitaxel 20 mg/m^2 intravenously every 3 weeks, in combination with oral prednisone or prednisolone 10 mg daily.
This example relates to a patient with metastatic prostate cancer. The following treatment was followed: cabazitaxel 25 mg/m^2 intravenously (day 1) every 3 weeks and prednisone 10 mg PO daily, from day 1 continuously.
This patient was treated with cabazitaxel 20 mg/m^2 on day 1 every 3 weeks in combination with prednisone/prednisolone.
The following therapy dosage was used: cabazitaxel 25 mg/m^2 intravenously (day 1) every 3 weeks, plus prednisone 10 mg orally daily.
The therapy was as follows: the patient received cabazitaxel 25 mg/m^2 intravenous infusion over 1 hour on day 1 of each 3 week cycle as well as oral prednisone/prednisolone 10 mg daily.
The following dosage regimen was used: cabazitaxel 25 mg/m^2 on day 1 every 3 weeks in combination with prednisone/prednisolone.
This example relates to a patient with metastatic castration resistant prostate cancer not pretreated with chemotherapy. The following therapy was applied: cabazitaxel 25 mg/m^2 intravenously (day 1) every 3 weeks. Prednisone 10 mg PO daily, from day 1 continuously.
This example relates to a patient with metastatic castration resistant prostate cancer not pretreated with chemotherapy, having the following therapy: cabazitaxel 25 mg/m^2 intravenously (day 1) every 3 weeks and prednisone 10 mg PO daily, from day 1 continuously.
This example relates to a patient with metastatic castration resistant prostate cancer not pre-treated with chemotherapy. The following therapy was applied: cabazitaxel 20 mg/m^2 intravenously (day 1) every 3 weeks, prednisone 10 mg PO daily, from day 1 continuously.
The following dosage regimen was applied: cabazitaxel 25 mg/m^2 intravenously every 3 weeks, in combination with oral prednisone or prednisolone 10 mg daily.
The therapy involved the administration of cabazitaxel on day 1 every 3 weeks in combination with prednisone.
The following therapy was applied: cabazitaxel 25 mg/m^2 on day 1 every 3 weeks in combination with prednisolone.
The following dosage regimen was applied: cabazitaxel 20 mg/m^2 intravenously (day 1) every 3 weeks and prednisone 10 mg PO daily, from day 1 continuously.
The following dosage regimen was applied: cabazitaxel 20 mg/m^2 on day 1 every 3 weeks in combination with prednisolone.
The following dosage regimen was applied: cabazitaxel 25 mg/m^2 on day 1 every 3 weeks in combination with prednisone.
The applied dosage regimen was as follows: cabazitaxel 25 mg/m^2 intravenous infusion over 1 hour on day 1 of each 3 week cycle as well as oral prednisone 10 mg daily.

tubulin = details: resulting in inhibition of microtubule depolymerization and tumor cell proliferation; cited from earlier work
[4] = Ex 3, cabazitaxel 25 mg/m^2 + prednisone + budesonide
[5] = Ex 5, cabazitaxel 20 mg/m^2 + prednisone, cycle 4, day 5
[6] = Ex 5, cabazitaxel 20 mg/m^2 + prednisone, during hospitalization
[7] = Ex 7, cabazitaxel 25 mg/m^2 + prednisone
[8] = Ex 7, cabazitaxel 25 mg/m^2 + prednisone, day 9 of first cycle
[9] = Ex 12, cabazitaxel 25 mg/m^2 + prednisone
[10] = Ex 16, cabazitaxel 25 mg/m^2 + prednisolone
[11] = Ex 16, cabazitaxel 25 mg/m^2 + prednisolone, five days after hospitalization
[12] = Ex 20, cabazitaxel 25 mg/m^2 + prednisolone, after intensive care
[13] = Ex 20, cabazitaxel 25 mg/m^2 + prednisolone, on admission

Compound: CO[C@H]1C(=O)[C@]2(C)[C@@H](OC)C[C@H]3OC[C@@]3(OC(C)=O)[C@H]2[C@H](OC(=O)c2ccccc2)[C@]2(O)C[C@H](OC(=O)[C@H](O)[C@@H](NC(=O)OC(C)(C)C)c3ccccc3)C(C)=C1C2(C)C [cabazitaxel, 4α-acetoxy-2α-benzoyloxy-5β,20-epoxy-1β-hydroxy-7β,10β-dimethoxy-9-oxo-11-taxen-13α-yl (2R,3S)-3-tert-butoxycarbonyl-amino-2-hydroxy-3-phenylpropionate]
- activity in tumor models [1]: active
- gastrointestinal adverse reactions reported [2]: Gastrointestinal (GI) hemorrhage and perforation, ileus, colitis, including fatal outcome
- control fibrogastroscopy finding ([3]; Ex 1, cabazitaxel 20 mg/m^2 + prednisone, ten days after antisecretory and antiulcer therapy): atrophic gastritis
- outcome of event ([3]; Ex 1, cabazitaxel 20 mg/m^2 + prednisone, ten days after onset of epigastric pain): fully recovered
- adverse event complained of ([3]; Ex 1, patient, cabazitaxel 20 mg/m^2 every 3 weeks + prednisone 10 mg daily, 15th day of cycle 1): epigastric pain
- fibrogastroduodenoscopy finding ([3]; Ex 1, patient, cabazitaxel 20 mg/m^2 every 3 weeks + prednisone 10 mg daily, two days after 15th day of cycle 1): acute ulcer in the small curvature
- colonic spasm (grade) ([3]; Ex 2, cabazitaxel 20 mg/m^2 + prednisone, during 7th cycle): grade 2 to grade 1
- outcome of colitis ([3]; Ex 2, cabazitaxel 20 mg/m^2 + prednisone, three days later): recovered
- colitis (grade) ([3]; Ex 2, patient, cabazitaxel 20 mg/m^2 every 3 weeks + prednisone 10 mg daily, 75 days after first, 6 days after most recent dose (cycle 4)): 3
- colitis (grade) [3, 4]: 2
- outcome of events [3, 4]: no more episodes of SVT or diarrhea
- white blood cell (WBC) ([3]; Ex 3, cabazitaxel 25 mg/m^2 + prednisone + budesonide, 45 days after first dose, normal 4-10): 6.9
- haemoglobin ([3]; Ex 3, cabazitaxel 25 mg/m^2 + prednisone + budesonide, 45 days after first dose, normal 8.5-11): 7.3
- creatinine ([3]; Ex 3, cabazitaxel 25 mg/m^2 + prednisone + budesonide, 45 days after first dose, normal 60-110): 94
- supraventricular tachycardia with angina (grade) ([3]; Ex 3, cabazitaxel 25 mg/m^2 + prednisone + budesonide, 45 days after first, 3 days after most recent dose): 3
- sigmoidoscopy finding ([3]; Ex 3, cabazitaxel 25 mg/m^2 + prednisone + budesonide, six days later): severe colitis
- diarrhea ([3]; Ex 3, patient, cabazitaxel 25 mg/m^2 + prednisone 10 mg daily + budesonide 9 mg daily, 43 days after first, 1 day after most recent dose): slight diarrhea
- neutropenia ([3]; Ex 4, cabazitaxel 20 mg/m^2 + prednisone, during enterocolitis): no neutropenia
- outcome of event ([3]; Ex 4, cabazitaxel 20 mg/m^2 + prednisone, three days later): recovered
- enterocolitis (grade) ([3]; Ex 4, patient, cabazitaxel 20 mg/m^2 + prednisone 10 mg, 145 days after first, 7 days after most recent dose (cycle 7)): 3
- gastritis (grade) [3, 5]: 2
- nausea (grade) [3, 5]: 2
- WBC decrease (grade) [3, 6]: 3
- WBC level [3, 6]: 2720
- outcome of events ([3]; Ex 5, cabazitaxel 20 mg/m^2 + prednisone, leukopenia three days after corrective treatment, hypotension, nausea and gastritis one day later): recovered
- WBC level ([3]; Ex 5, cabazitaxel 20 mg/m^2 + prednisone, on the day after): 1000
- hypotension (grade) ([3]; Ex 5, patient, cabazitaxel 20 mg/m^2 every 3 weeks + prednisone 10 mg daily, cycle 4, day 5): 2
- pneumonia (grade) ([3]; Ex 6, cabazitaxel 20 mg/m^2 + prednisone, day 7 of cycle 1): 4
- outcome ([3]; Ex 6, cabazitaxel 20 mg/m^2 + prednisone, one day later, due to paralytic ileus and pneumonia): died
- paralytic ileus (grade) ([3]; Ex 6, patient, cabazitaxel 20 mg/m^2 every 3 weeks + prednisone, day 4 of cycle 1): 4
- time to recovery from colitis [3, 7]: 9 days
- time to recovery from neutropenia [3, 7]: 5 days
- diarrhea with blood in feces, number of episodes [3, 8]: more than 10 episodes
- neutropenia (grade) [3, 8]: 4
- colitis (grade) ([3]; Ex 7, cabazitaxel 25 mg/m^2 + prednisone, neutropenic colitis, day 9 of first cycle): 3
- absolute neutrophil count ([3]; Ex 7, patient, cabazitaxel 25 mg/m^2 every 3 weeks + prednisone 10 mg, day 9 of first cycle): 0.01
- clostridium difficile infection (grade) ([3]; Ex 8, cabazitaxel 25 mg/m^2 + prednisone/prednisolone): 3
- neutropenia (grade) ([3]; Ex 8, cabazitaxel 25 mg/m^2 + prednisone/prednisolone, 5th day of cycle 1): 3
- outcome ([3]; Ex 8, cabazitaxel 25 mg/m^2 + prednisone/prednisolone, six days later): recovered
- neutropenia (grade) ([3]; Ex 8, cabazitaxel 25 mg/m^2 + prednisone/prednisolone, two days later): 4
- diarrhea (grade) ([3]; Ex 8, patient, cabazitaxel 25 mg/m^2 every 3 weeks + prednisone/prednisolone 10 mg daily, 5th day of cycle 1): 2
- outcome ([3]; Ex 9, cabazitaxel 20 mg/m^2 + prednisolone, 5 days after initial hospitalization): death
- neutrophil count ([3]; Ex 9, cabazitaxel 20 mg/m^2 + prednisolone, day following admission): 0.4
- neutropenic colitis (grade) ([3]; Ex 9, cabazitaxel 20 mg/m^2 + prednisolone, final diagnosis): 4
- diagnosis at hospitalization ([3]; Ex 9, patient, cabazitaxel 20 mg/m^2 every 3 weeks + prednisolone 10 mg daily, four days after second administration): acute bowel obstruction
- neutropenic colitis (grade) ([3]; Ex 10, cabazitaxel 25 mg/m^2 + prednisone): 4
- neutrophil count ([3]; Ex 10, cabazitaxel 25 mg/m^2 + prednisone, one day later, normal 1.4-7.7): 1e+08 L⁻¹
- fever (grade) ([3]; Ex 10, cabazitaxel 25 mg/m^2 + prednisone, readmission two days after discharge): 1
- outcome of event ([3]; Ex 10, cabazitaxel 25 mg/m^2 + prednisone, three days after readmission): resolved
- diarrhea (grade) ([3]; Ex 10, patient, cabazitaxel 25 mg/m^2 every 3 weeks + prednisone 10 mg daily, 7 days after first cycle): 2
- diagnosis ([3]; Ex 11, cabazitaxel 20 mg/m^2 + prednisone/prednisolone, nine days after last dose): Neutropenic infection (colitis)
- platelet count ([3]; Ex 11, cabazitaxel 20 mg/m^2 + prednisone/prednisolone, nine days after last dose, NR 150×10^3-450×10^3): 93 ×10^3 cells/mm^3
- CRP ([3]; Ex 11, cabazitaxel 20 mg/m^2 + prednisone/prednisolone, nine days after last dose, NR <0.5): 0.39 mg/dL
- neutrophils ([3]; Ex 11, cabazitaxel 20 mg/m^2 + prednisone/prednisolone, nine days after last dose, normal 1.7×10^3-8.0×10^3): 1.12 ×10^3 cells/mm^3
- outcome ([3]; Ex 11, cabazitaxel 20 mg/m^2 + prednisone/prednisolone, two days after admission): recovered
- WBC ([3]; Ex 11, patient, cabazitaxel 20 mg/m^2 every 3 weeks + prednisone/prednisolone, nine days after last dose, normal 3.5×10^3-10.5×10^3): 2.41 ×10^3 cells/mm^3
- enterocolitis (grade) [3, 9]: 4
- febrile neutropenia (grade) [3, 9]: 4
- renal failure (grade) [3, 9]: 4
- septic shock (grade) [3, 9]: 4
- outcome ([3]; Ex 12, cabazitaxel 25 mg/m^2 + prednisone, 2 days after admission, septic shock secondary to neutropenic enterocolitis): expired
- fever ([3]; Ex 12, cabazitaxel 25 mg/m^2 + prednisone, 13 days after first dose): 38.5 °C
- lower abdominal pain (grade) ([3]; Ex 12, patient, cabazitaxel 25 mg/m^2 every 3 weeks + prednisone 10 mg daily, 13 days after first dose): 3
- outcome ([3]; Ex 13, cabazitaxel 25 mg/m^2 + prednisone/prednisolone, cause of death reported as progression of disease): died
- diagnosis at hospitalization ([3]; Ex 13, patient, cabazitaxel 25 mg/m^2 every 3 weeks + prednisone/prednisolone 10 mg daily, ten days after first cycle): neutropenic enterocolitis and sepsis
- outcome ([3]; Ex 14, cabazitaxel 25 mg/m^2 + prednisone, nine days after hospitalization): recovered
- adverse event ([3]; Ex 14, patient, cabazitaxel 25 mg/m^2 every 3 weeks + prednisone, 232 days after first, 14 days after most recent dose (cycle 9)): neutropenic enteritis
- outcome ([3]; Ex 15, cabazitaxel 25 mg/m^2 + prednisone, 4 days later): recovered
- video coloscopy finding ([3]; Ex 15, cabazitaxel 25 mg/m^2 + prednisone, bacteriological tests later negative): probable infectious colitis
- rectal bleeding (grade) ([3]; Ex 15, cabazitaxel 25 mg/m^2 + prednisone, cycle 6, 111 days after first, 6 days after last administration): 1
- diarrhea (grade) ([3]; Ex 15, patient, cabazitaxel 25 mg/m^2 every 3 weeks + prednisone 10 mg daily, 108 days after first administration): 1
- SAH (subarachnoid hemorrhage) (grade) [3, 10]: 2
- urinary tract infection (grade) [3, 10]: 3
- gastritis, final diagnosis (grade) ([3]; Ex 16, cabazitaxel 25 mg/m^2 + prednisolone, day 17 of cycle 1): 3
- DIC (grade) [3, 11]: 4
- INR [3, 11]: 1.6
- outcome of gastritis ([3]; Ex 16, cabazitaxel 25 mg/m^2 + prednisolone, three days later): recovered
- ulcus ventriculi, initial suspicion (grade) ([3]; Ex 16, patient, cabazitaxel 25 mg/m^2 every 3 weeks + prednisolone 10 mg, day 17 of cycle 1): 3
- outcome ([3]; Ex 17, cabazitaxel 20 mg/m^2 + prednisone, seven days after hospitalization): recovered
- adverse event (confirmed by emergency surgery) ([3]; Ex 17, patient, cabazitaxel 20 mg/m^2 every 3 weeks + prednisone 10 mg daily, 42 days after first, 21 days after most recent dose, life-threatening): perforation of ulcer
- outcome of duodenal ulcers ([3]; Ex 18, cabazitaxel 25 mg/m^2 + prednisone or prednisolone): recovered
- acute cystitis (grade) ([3]; Ex 18, cabazitaxel 25 mg/m^2 + prednisone or prednisolone, day 26 of cycle 1): 1
- duodenal ulcers (grade) ([3]; Ex 18, patient, cabazitaxel 25 mg/m^2 every 3 weeks + prednisone or prednisolone 10 mg daily, four days after day 16 of cycle 1): 1
- haematocrit ([3]; Ex 19, cabazitaxel + prednisone, 128 days after first dose, reference 42-52): 16.33%
- digestive haemorrhage (grade) ([3]; Ex 19, cabazitaxel + prednisone, 128 days after first, 20 days after last dose, life threatening): 4
- outcome ([3]; Ex 19, cabazitaxel + prednisone, discharged 9 days after hospitalization): recovered
- haemoglobin ([3]; Ex 19, patient, cabazitaxel every 3 weeks + prednisone, 128 days after first, 20 days after last dose, reference 13.0-16.0): 51.2 g/L
- haematocrit [3, 12]: 19.5%
- haemoglobin [3, 12]: 72 g/L
- platelets [3, 12]: 142 ×10^9
- outcome ([3]; Ex 20, cabazitaxel 25 mg/m^2 + prednisolone, fifteen days after hospitalization): recovered
- haematocrit [3, 13]: 19%
- haemoglobin [3, 13]: 59 g/L
- platelet ([3]; Ex 20, cabazitaxel 25 mg/m^2 + prednisolone, thirteen days after hospitalization, units not specified, 180-320 thousand in 1 mcl): 122
- intestinal haemorrhage (grade) ([3]; Ex 20, patient, cabazitaxel 25 mg/m^2 every 3 weeks + prednisolone, 17 days after first dose, life threatening): 4
- adverse event during hospital stay ([3]; Ex 21, cabazitaxel 20 mg/m^2 + prednisone): febrile neutropenia
- outcome ([3]; Ex 21, cabazitaxel 20 mg/m^2 + prednisone, one day after discharge): recovered
- small bowel obstruction (grade) ([3]; Ex 21, patient, cabazitaxel 20 mg/m^2 every 3 weeks + prednisone 10 mg daily, cycle 2, most likely secondary to adhesions): 4
- outcome ([3]; Ex 22, cabazitaxel 20 mg/m^2 + prednisolone, three days later, after laproscopy): recovered
- small intestinal obstruction (grade) ([3]; Ex 22, patient, cabazitaxel 20 mg/m^2 every 3 weeks + prednisolone, cycle 9, 181 days after first, 13 days after most recent dose): 3
- general weakness (grade) ([3]; Ex 23, cabazitaxel 25 mg/m^2 + prednisone): 3
- red blood loss per anum (grade) ([3]; Ex 23, cabazitaxel 25 mg/m^2 + prednisone, 85 days after first, 1 day after most recent dose): 1
- outcome ([3]; Ex 23, cabazitaxel 25 mg/m^2 + prednisone, 117 days after first dose, due to disease progression): died
- pathologic fracture lumbar spine 1 (grade) ([3]; Ex 23, cabazitaxel 25 mg/m^2 + prednisone, five days after day 95): 3
- outcome of red blood loss per anum and hematuria ([3]; Ex 23, cabazitaxel 25 mg/m^2 + prednisone, two days after hospitalization): recovered
- hematuria (grade) ([3]; Ex 23, patient, cabazitaxel 25 mg/m^2 every 3 weeks + prednisone, 85 days after first, 1 day after most recent dose): 3
- outcome ([3]; Ex 24, cabazitaxel 25 mg/m^2 + prednisone, about a month after hospitalization, unknown cause, colitis ongoing): died
- time to resolution of ileus ([3]; Ex 25, cabazitaxel 20 mg/m^2 + prednisone): 13 days
- mechanical ileus due to unclear cause (grade) ([3]; Ex 25, cabazitaxel 20 mg/m^2 + prednisone, 215 days after first, 6 days after most recent dose): 2
- diagnosis ([3]; Ex 25, patient, cabazitaxel 20 mg/m^2 every 3 weeks + prednisone 10 mg daily, 214 days after first dose): ileus
- action on tubulin (tubulin): binds to and stabilizes tubulin
